# Source: patent US8796415B2, “Inhibitors of guanine exchange factors and their use as anticancer drugs” (Centre National de la Recherche Scientifique, priority 2009, dated 2014)
# Ends that are not written are not given here.
# What was measured:
# Tgat = assay: mant-GTP fluorescence kinetics specificity assay, RhoA/Tgat; format: biochemical; conditions: peptide 20 μM, 0.5 μM Tgat, 1 μM RhoA, 1 μM mant-GTP
# Experimental: (§1) Figures represent the comparison of TRIPE32G and TRIPT16M/L17S inhibition efficiency on different GTPase/RhoGEF systems, using 1 μM GTPase and 0.5 μM GEF as follows:
# (§2) In each assay, the peptides were used at a concentration of 20 μM, corresponding to a 40 fold molar excess of inhibitor versus GEF. All fluorescence kinetics assays were performed using 1 μM mant-GTP. Results are expressed as Relative Fluorescence Units (RFU) versus time. The reaction performed in the absence of GEF reflects the spontaneous exchange activity of the GTPase.
# (§3) Radioactive [3H]-GDP dissociation assays were performed as described (Schmidt et al., 2002). […] Inhibition efficiency is expressed as the ratio between [3H]-GDP-bound RhoA at 15 and 0 min. Apparent inhibition constants (Kiapp) of TRIP-like peptides were determined from kobs values obtained at increasing peptide concentrations using the above fluorescence nucleotide exchange assay. Kiapp was calculated from the hyperbolic fit of kobs values as a function of the inhibitor concentration as described (Zeeh et al., 2006). TRIP-like peptide specificity was assayed using mant-GTP fluorescence kinetics (λex=360 nm, λem=460 nm) in a FLX800 Microplate Fluorescence Reader (BioTek Instruments). […] The exchange reaction was initiated by addition of 1 μM RhoA or RhoG and monitored for 10 min.
# Lbc [1] = target: T1, Lbc (Homo sapiens, UniProt Q12802); assay: mant-GTP fluorescence kinetics specificity assay, RhoA/Lbc; format: biochemical; conditions: peptide 20 μM, 0.5 μM GEF, 1 μM RhoA
# T1 construct: GST-Dbl (DH-PH domain), GST-Lbc (DH-PH), GST-p63RhoGEF (DH domain) and GST-RhoG were purified as described previously; GST (N); made in house
# T1 sequence (Q12802 1994-2333): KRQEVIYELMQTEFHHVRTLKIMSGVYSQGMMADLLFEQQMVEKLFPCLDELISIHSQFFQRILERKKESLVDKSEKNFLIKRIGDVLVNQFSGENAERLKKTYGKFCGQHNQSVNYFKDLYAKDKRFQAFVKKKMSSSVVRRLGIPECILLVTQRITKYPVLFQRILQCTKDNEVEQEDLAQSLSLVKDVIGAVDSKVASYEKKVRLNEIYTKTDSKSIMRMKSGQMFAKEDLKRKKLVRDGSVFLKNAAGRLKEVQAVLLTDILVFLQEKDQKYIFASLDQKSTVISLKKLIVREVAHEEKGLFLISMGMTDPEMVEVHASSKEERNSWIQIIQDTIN
# Experimental: as §1, §2, §3
# [2] = tested on: Dbl mediated RhoA activation; assay: RhoA activation assay (GST-RBD pull-down) in NIH3T3 cells expressing Dbl; format: cell-based; conditions: GFP-tagged peptide
# Experimental: FIG. 8 represents the effect of GFP-TRIPE32G on RhoA activation induced by Dbl (left panel) or Tgat (right panel) in NIH3T3 cells, assayed by GST-RBD pulldown. The levels of GTP-bound and total RhoA protein are shown in the upper two panels. Expression levels of Myc-Dbl and of all GFP-tagged proteins are shown in the lower two panels.
# The level of GTP-bound RhoA was measured by a GST pulldown assay as described (Schmidt et al., 2002). Briefly, cell lysates were incubated with glutathione beads coated with the recombinant Rho-binding domain (RBD) of the RhoA specific effector Rhotekin (Cytoskeleton Inc.).
# [3] = tested on: Tgat-expressing NIH3T3 cells; assay: Cell proliferation or apoptosis (data not shown); format: cell-based
# Trio DH2-PH2 [4] = target: T2, Trio DH2-PH2 (Homo sapiens, UniProt O75962); assay: Yeast two-hybrid screening for binding to Trio DH2-PH2; conditions: 3-AT 80-120 mM
# T2 construct: made in house
# From the text: The inventors next reasoned that peptides that would bind stronger to the GEF domain may also be better at inhibiting its activity. The inventors thus generated a library of peptide aptamers derived from TRIPα by random mutagenesis, which the inventors screened for GEF binding in a yeast two-hybrid assay. The inventors chose a system in which the threshold of interaction detection can be modulated by the concentration of the 3-aminotriazole (3-AT) drug (Sardet et al., 1995). Since Tgat is toxic in yeast, the inventors used Trio DH2-PH2 to screen this TRIP-like peptide library. […] These clones were then produced as GST fusions and analyzed for their inhibition of Trio DH2-PH2, using the [3H]-GDP dissociation assay.
# An aptamer library derived from TRIPα was created by PCR-based random mutagenesis of TRIPα inserted into the yeast two-hybrid vector pPC86. Sequencing of a statistically representative number of clones yielded a mutation rate of ˜3 mutations/clone. 6×10^5 independent clones were screened for interactors, using Trio DH2-PH2 (in the pPC97 vector) as a bait, in the MAV 103 yeast strain, on high concentrations of 3-AT (3-amino-triazol, Sigma) (80-120 mM). Selected peptides were then produced as GST-fusions and analyzed for their inhibition of Trio DH2-PH2 using the [3H]-GDP dissociation assay.
# Trio DH2-PH2 [5] = target: T2, Trio DH2-PH2; conditions: Schmidt et al., 2002; cited from earlier work
# Lbc [6] = target: T1, Lbc; conditions: shown previously (Schmidt et al., 2002 and unpublished results); cited from earlier work
Substance,inhibition of Tgat exchange activity on RhoA (Tgat),effect on exchange activity of Lbc/RhoA (Lbc [1]),inhibition of oncogenic Dbl mediated RhoA activation in intact cells [2],non-specific effect on cell proliferation or apoptosis [3],interaction with Trio DH2-PH2 in yeast two-hybrid assay (Trio DH2-PH2 [4]),inhibition of Trio DH2-PH2 activation of RhoA (Trio DH2-PH2 [5]),activity on Lbc (Lbc [6])
GST-TRIPT16M/L17S,fully inhibited,no effect,–,–,–,–,–
GST-TRIPE32G (AREGADGAICGYNLATLVMLGPSERVFCPLCGPCSSDIYELM; cysteine pairing not given here; also: GST fusion),fully inhibited,no effect,not able to inhibit RhoA activation by Dbl,not due to a non-specific effect of TRIPE32G on cell proliferation or apoptosis,–,–,–
AREGADGAICGYNLATLVMLGPSERVFCPLCEPCSSDIYELM [TRIPα],–,–,–,–,no interaction,inhibits its activation of RhoA both in vitro and in intact cells,not active
